Source: patent publication US10239918B2, “Cahuitamycins and methods of making and using the same” (THE REGENTS OF THE UNIVERSITY OF MICHIGAN, priority 2015, dated 2019)
Like-named read-outs stand apart in the source and are kept apart here.

Experiments:
[1] = reference value used for the calculation; cited from earlier work
A. baumannii growth = assay: inhibition of A. baumannii growth; format: cell-based, Acinetobacter baumannii; conditions: for effect on bacterial growth: A. baumannii, apo form
[2] = competition titrations with EDTA to determine iron-binding affinity (pFeIII); format: physicochemical; conditions: competition titration of Fe-cahuitamycin complex with EDTA, Hepes buffer pH 7.4, UV-vis; three individual titrations
Method: Determination of pFe^III for cahuitamycins was carried out as reported by Abergel et al. J. Am. […] Briefly, purified Fe-cahuitamycins, prepared as described above, was dissolved in Hepes buffer (10 mM Hepes, 0.1 M KCl, pH 7.4) and five different concentration ranges of ETDA were added from EDTA stock solutions also prepared in HEPES buffer. Each reaction consisted of a total volume of 0.25 mL, a final concentration of 0.1 mM Fe-cahuitamycins and a range of 5-fold-8000-fold EDTA (relative to Fe-cahuitamycins) in Hepes buffer. The reaction was allowed to equilibrate at room temperature for at least 24 h, and UV-visible spectra were subsequently recorded. The composite spectra contain contributions from both Fe-EDTA and Fe-cahuitamycins. The ε of both species as a function of λ, were determined in Hepes buffer and used to deconvolute the spectra. The contribution of Fe-cahuitamycins was subtracted from the composite spectra using the 435 nm absorption band and the ε of both Fe-cahuitamycins and Fe-EDTA were used to quantify the proportion of each species in solution. Concentrations of apo-EDTA and apo-cahuitamycins were calculated by subtracting [Fe-EDTA] (or [Fe-cahuitamycins]) from total initial EDTA (or Fe cahuitamycins). The log [EDTA]/[cahuitamycins] was plotted against log [Fe-EDTA]/[Fe-cahuitamycins] and the data were fit to the following equation, which has been derived by Abergel et al., J. Am.

A. baumanii biofilm = assay: confocal microscope imaging of biofilm on glass plate (SYTO 9 / propidium iodide); format: cell-based, Acinetobacter baumannii; conditions: glass plate treated with 240 nM
Method: (§1) Next, the specific stage of inhibition during biofilm formation was probed as well as the extent of inhibition through a flow cell assay. […] In addition, confocal microscope imaging analysis of the A. baumanii biofilm was conducted. In this assay, the biofilm was developed on a glass plate and left untreated as a control or treated with only 240 nM of 1 and 3. After treatment with STYO® 9 stain and propidium iodide (PI) the biofilm structure was observed.

[3] = tested on: A. baumannii biofilm formation; assay: static biofilm assay, crystal violet staining and optical density; format: cell-based, Acinetobacter baumannii ATCC 17978; conditions: for effect on biofilm formation: apo form; for IC50: Acinetobacter baumannii, read-out: IC50, inhibition of biofilm formation
Description: In an effort to discover new antibiotics, a marine microbial-derived NPE library was screened to identify biofilm inhibitors in A. baumannii. Natural products accounts for the majority of currently marketed drugs,^10 and the marine environment represents a potential new source of unique chemical entities.^11 A crystal violet based high throughput assay was used to query against a library of 9,831 marine microbial derived NPEs in order to identify the extracts inhibiting biofilm formation as primary screen. The active extracts obtained in primary high-throughput screening were further prioritized by setting the inhibition threshold to 50% followed by a dose response assay, yielding 31 active NPEs.
Primarily, the static biofilm assay using 1-3 was conducted using crystal violet staining followed by optical density measurements (FIG. 3). […] However, loss of inhibition of biofilm over time can be directly attributed to the metal-complexed cahuitamycins.
A static biofilm assay was developed from a previously reported method.^10 The biofilm assay measures the adhesion of bacteria to the surface of polystyrene 384 well microtiter plates. Adherent cells are detected by staining with Crystal Violet and subsequent washing to remove nonadherent planktonic cells. Inhibitors of biofilm formation prevent the bacteria from adhering to the surface of the microtiter plate and reduce the amount of Crystal Violet retained after washing. Assay quantification was performed by OD600 absorbance measurement of the Crystal Violet stained biofilm. The assay was optimized for plate surface treatment, time, temperature, media, media concentration, Crystal Violet concentration, wash method, inhibitor sensitivity, and culture inoculum preparation.
The A. baumannii test strain (ATCC 17978) was maintained as a frozen stock at −80° C. in 20% glycerol. On the morning of the assay, 5 ml of Mueller Hinton II cation adjusted media (Becton Dickinson cat. 212322) was inoculated and grown at 37° C., 180 rpm shaking for 4-6 h. The culture was then diluted 1:50 and incubated an additional 2 h. The resulting cells were washed four times by centrifugation and resuspension of the pellet in media was performed to remove any metabolites or cell signaling factors. The assay inoculum was prepared by diluting the cells to 0.008 OD600 in 10% Mueller Hinton II cation adjusted media (diluted in 18 ohm deionized water). The assay plates (Corning cat. 3680, 384 well non-treated polystyrene) were prepared by dispensing 20 μl of 10% Mueller Hinton II cation adjusted media into columns 1-22 using a Multidrop Combi dispenser (ThermoFisher). The natural product extract samples were added as 0.2 μl of 15 mg/ml stocks in DMSO using a Biomek FX high density pintool (Beckman Coulter). Column 1 and 2 contained DMSO without natural product extracts and served as the negative control. The positive control was added to column 23 and 24 as 20 μl of 40 μM Baicalein (Sigma-Aldrich cat. 11712). The bacterial cells were added to the entire plate in 20 μl of the prepared inoculum using a Multidrop Combi dispenser (ThermoFisher). The resulting assay contained 40 μl of 10% Mueller Hinton II cation adjusted media with 0.004 OD600 bacterial cells, 0.5% DMSO, and 75 μg/ml natural product extract. The assay plates were incubated at 30° C. for 20 h, stationary, in a humidified incubator. The biofilm was stained by adding 10 μl of filtered 1% Crystal Violet and incubating for 30 minutes at room temperature. Excess Crystal Violet and nonadherent planktonic cells were removed by washing three times with 150 μl of PBS using an ELX405 plate washer (Biotek). The wash program used a low velocity dispense rate and an aspiration height of 3.8 mm; about 10 μl of PBS remained in the well after washing. The Crystal Violet stained biofilm was solubilized by the addition of 50 μl of 100% ethanol and allowed to develop overnight. Quantification was performed by measuring the OD600 absorbance using a Pherastar plate reader (BMG). […]

[4] = tested on: A. baumannii ATCC 17978 biofilm; assay: flow cell biofilm assay; format: cell-based, Acinetobacter baumannii ATCC 17978; conditions: 7.5 μg/ml in flow media
Method: as §1
Biofilms were formed by A. baumannii ATCC 17978 in flow chambers at room temperature. Images were taken at 1 h, 6 h and 24 h (by using a 60× lens) after inoculation. A flow cell biofilm was achieved by using a flow cell chamber (ACCFL0001, Life Science Incorporated, Greensboro, N.C.). Briefly, overnight cultures of A. baumannii ATCC 17978 grown in MHII broth at 37° C. were diluted 100 fold with fresh MHII broth. 1 ml of dilution was injected into a flow cell chamber and allowed to settle one hour for attaching of bacteria followed by initiation media flow. Flow media was 10% MHII broth (control), or 10% MHII broth with 7.5 μg/ml of desferoxamine, or MHII broth with 7.5 μg/ml of cahuitamycins A. The flow rate was 4 ml/hr. Micrographs of the biofilm were acquired at 1 h, 6 h and 24 h by using an Olympus IX70 microscope with 60× lens

[5] = compound tested in iron-complexed form
[6] = static biofilm assay, A. baumannii

Question: Which “pFe^III (known stability constants for EDTA)” value [1] does the source give for `O=C(O)CN(CCN(CC(=O)O)CC(=O)O)CC(=O)O` [EDTA] here?
Answer: Its value is 23.42.

Question: With `O=CN(O)CCC[C@@H](NC(=O)[C@H](CO)NC(=O)[C@@H]1COC(c2ccccc2O)=N1)C(=O)N1NCCC[C@@H]1C(=O)NCCC(=O)O` [compound 1, Cahuitamycin A] as the compound, how does the “impact on growth, iron-complexed form” value (A. baumannii growth; [5]) read?
Answer: Its value is “almost no impact”.

Question: What about the “pFe^III” value [2] of the same compound?
Answer: Its value is 18.34±0.16.

Question: What about the “biofilm thickness compared with the control” value (A. baumanii biofilm) of the same compound?
Answer: The value was “much thinner biofilm”.

Question: What about the “total biomass compared with the control” value (A. baumanii biofilm) of the same compound?
Answer: The value was “significantly less total biomass”.

Question: What about the “total biomass of biofilm” value (A. baumanii biofilm) of the same compound?
Answer: The value was 0.18 μm^3.

Question: What about the “impact on biofilm formation, iron-complexed form” value [3, 5] of the same compound?
Answer: Its value is “almost no impact”.

Question: What about the “effect on biofilm formation” value [3, 6] of the same compound?
Answer: The value was “able to inhibit”.

Question: And the “biofilm state in flow cell after 6 h of supplementation” value [4]?
Answer: Its value is “only a few micro colonies”.

Question: What about the “biofilm state in flow cell after 24 h of supplementation” value [4] of the same compound?
Answer: The value was “larger micro colonies and initiation of biofilm formation”.

Question: With `O=CN(O)CCC[C@@H](NC(=O)[C@H](CO)NC(=O)[C@H](CO)NC(=O)c1ccccc1O)C(=O)N1NCCC[C@@H]1C(=O)NCCC(=O)O` [compound 2, Cahuitamycin B] as the compound, how does the “effect on bacterial growth” value (A. baumannii growth) read?
Answer: The value was “no effects”.

Question: What about the “pFe^III” value [2] of the same compound?
Answer: Its value is 20.42±0.09.

Question: What about the “effect on biofilm formation” value [3, 6] of the same compound?
Answer: Its value is “no effects”.

Question: With `Cc1cccc(O)c1C1=N[C@H](C(=O)N[C@@H](CO)C(=O)N[C@H](CCCN(O)C=O)C(=O)N2NCCC[C@@H]2C(=O)NCCC(=O)O)CO1` [compound 3, Cahuitamycin C] as the compound, how does the “effect on bacterial growth” value (A. baumannii growth) read?
Answer: Its value is “limited effect”.

Question: And the “pFe^III” value [2]?
Answer: Its value is 17.52±0.12.

Question: What about the “biofilm thickness compared with the control” value (A. baumanii biofilm) of the same compound?
Answer: The value was “much thinner biofilm”.

Question: What about the “total biomass compared with the control” value (A. baumanii biofilm) of the same compound?
Answer: Its value is “significantly less total biomass”.

Question: And the “total biomass of biofilm” value (A. baumanii biofilm)?
Answer: The value was 0.10 μm^3.

Question: What about the IC50 [3, 6] of the same compound?
Answer: The IC50 was 14.5 µM.

Question: What does the source list for `Cc1ccc(O)c(C2=N[C@H](C(=O)N[C@@H](CO)C(=O)N[C@H](CCCN(O)C=O)C(=O)N3NCCC[C@@H]3C(=O)NCCC(=O)O)CO2)c1` [compound 4, Cahuitamycin D]?
Answer: IC50 [3, 6]: 8.4 µM; potency as biofilm inhibitor compared to 3 (cahuitamycin C) ([3]; static biofilm assay): almost twice the potency; potency as biofilm inhibitor compared to 3 (cahuitamycin C) ([3]; static biofilm assay, listed as cahuitamycin analog D): twice as active

Question: For `O=CN(O)CCC[C@@H](NC(=O)[C@H](CO)NC(=O)[C@H](CO)NC(=O)c1ccccc1O)C(=O)N[C@H](CCCNO)C(=O)NCCC(=O)O` [compound 5, Cahuitamycin E], which IC50 [3] is on record?
Answer: The IC50 was 10.5 µM.

Question: With `CC(=O)N(O)CCCCCNC(=O)CCC(=O)N(O)CCCCCNC(=O)CCC(=O)N(O)CCCCCN` [desferoxamine, reference compound] as the compound, how does the “biofilm state in flow cell after 6 h of supplementation” value [4] read?
Answer: The value was “formation of a robust biofilm”.

Question: And the “biofilm state in flow cell after 24 h of supplementation” value [4]?
Answer: Its value is “biofilm became thicker”.
